Legend:
ATCC17978-infected mice = assay: Mouse sepsis infection model with immunosuppressive drug treatment (survival, body weight, spleen weight); type: in vivo, C57BL/6 mice; conditions: for survival rate of ATCC17978-infected mice: intraperitoneal drug
Procedure: (§1) The mouse infection model was employed to detect the immune response induced by Ab in vivo. Mice of the same sex were randomly divided into several groups (5 animals per group) and then infected by 7.5×10^7 CFU of Ab test strain by intraperitoneal administration. The body weight of all mice was recorded before infection and at 12 hours post-infection. Survival of the test animals was determined by recording the mortality rate during the 120-hour experiment. At 12 hpi, the mice were sacrificed, and the organs were collected and homogenized for bacterial load measurement and analysis by flow cytometry, RNAseq, scRNAseq and qRT-PCR assay. The serum of the mice was collected for ELISA detection. Animal experiments were conducted at least twice to assess the consistency of the data.
To test the effect of NSAIDs treatment, the mice were administered intraperitoneal injections of 50 mg/kg NPXS and 100 mg/kg ASA 1 h before ATCC 17978 infection; a group of mice that served as control received equivalent volumes of PBS. The survival rate, health status, and weight of the test animals were recorded during the next 120 hours.

RAW264.7 cells = assay: Inhibitor treatment in RAW264.7 infected with ATCC 17978, flow cytometry of CD86/CD206; type: cell-based, mouse; conditions: RAW264.7 pretreated 1 h, Ab MOI=5 for 6 h; compared to cells not treated with the inhibitors
Procedure: RAW264.7 cells were pre-treated for 1 h with the culture medium, C29 (100 μM)^22, TJ-M2010-5 (20 μM)^23 and JSH-23 (30 μM)^24 (MCE, NJ, USA) respectively, and then stimulated with Ab (MOI=5) for 6 h in the presence of the culture medium, C29, TJ-M2010-5 or JSH-23. Cell supernatants were collected for subsequent cytokine measurement. RAW264.7 cells were incubated with fluorescently labeled antibodies against mouse F4/80, CD206, and CD86 for flow cytometric analysis, following washes three times with PBS and resuspension in PBS containing 2.5% FBS.

[1] = system: CD11b+F4/80+ macrophages in the lungs of Ab-infected mice
Procedure: as §1

[2] = system: serum cytokine production (TNF-α, IL-6 and IL-1b); conditions: Ab-infected mice, ELISA
Procedure: as §1
Blood was collected from the test mice by orbital bleeding and clotted at RT for 1 h. Blood was subsequently subjected to centrifugation at 10,000 g for 25 min at 4° C. Serum was divided into tubes and stored immediately at −80° C. until cytokine analysis.
The enzyme-linked immunosorbent assay (ELISA) was used to perform cytokine analysis in mouse serum and cell supernatants. Mouse serum was extracted as described above. Pre-treated macrophage cell supernatants were harvested and centrifuged to remove impurities. The levels of IL1β, IL6, and TNF-α were measured by using the IL-1 beta, IL-6 and TNF alpha Mouse Uncoated ELISA Kit (Thermo Fisher Scientific) according to the manufacturer's protocols, respectively.

[3] = system: pro-inflammatory, COX and TLR2/Myd88/NF-κB signaling pathway-related genes
Procedure: as §1
Total RNA was extracted from the homogenized lung samples or RAW264.7 cells (ATCC, CA, USA) upon Ab infection, utilizing the TRIzol™ method (Thermo Fisher Scientific, MA, USA). Turbo DNA-free™ Kit (Invitrogen, CA, USA) was employed for removal of DNA contaminants. 1 μg purified mRNA was reverse transcribed into cDNA using SuperScript™ III First-Strand Synthesis SuperMix Kit (Invitrogen), with a 1:10 dilution for subsequent qRT-PCR analysis. The qRT-PCR was then performed on an ABI QuantStudio 7 Flex Real-Time PCR System (Applied Biosystems, CA, USA) by the PowerUP SYBR Green master mix (Applied Biosystems). The target gene transcription levels were quantified by the comparative Ct method and normalized to the expression level of glyceraldehyde-3-phosphate dehydrogenase (GADPH).
Total RNA extracted from lung samples was sequenced by Novogene Technology (Hong Kong SAR, China). Bioanalyzer 2100 system was used to measure RNA integrity (Agilent Technologies, CA, USA); the NEBNextUltra RNA Library Prep Kit (NEB, CA, USA) was employed to construct the cDNA libraries for Illumina sequencing. The index-coded samples clustering was carried out on a cBot Cluster Generation System by the TruSeq PE Cluster Kit v3-cBot-HS (Illumia, CA, Illumia). The libraries were sequenced on the Illumina Novaseq platform with paired-end 150 bp reads. HISAT2 was used for sequencing reads alignment. Fragments per gene were counted based on exon regions with FeatureCounts v.1.6.243. Differential mRNA level analysis was carried on by the DESeq2 R package. Unigenes with P.adjust<0.05 and |Log2Fold Change|>1 could be described as differentially expressed genes. Gene Enrichment Analysis was conducted for gene ontology enrichment analysis.

[4] = RNA-seq, ATCC 17978-infected mice after NPXS treatment, stated as suppressed

CC(=O)Oc1ccccc1C(=O)O [ASA, acetylsalicylic acid]
survival rate of ATCC17978-infected mice (ATCC17978-infected mice; at 24 h): 60% | anti-inflammatory potency recorded during Ab infection (ATCC17978-infected mice; comparison with naproxen): inferior to that of naproxen

Cn1cnc([N+](=O)[O-])c1Sc1ncnc2nc[nH]c12 [AzA, azathioprine]
survival rate of ATCC17978-infected mice (ATCC17978-infected mice; at 36 h): 40%

C[C@@H]1C[C@H]2[C@@H]3CCC4=CC(=O)C=C[C@]4(C)[C@@]3(F)[C@@H](O)C[C@]2(C)[C@@]1(O)C(=O)CO [DXMS, dexamethasone]
survival rate of ATCC17978-infected mice (ATCC17978-infected mice; at 48 h): 40%

Cc1ccc(NCCCc2ccccc2)c(N)c1 [JSH-23]
CD86 MFI levels (RAW264.7 cells): decrease | CD206 MFI levels (RAW264.7 cells): no difference

COc1ccc2cc([C@H](C)C(=O)O)ccc2c1 [NPXS, (+)-(S)-2-(6-methoxynaphthalen-2-yl) propanoic acid]
extent of body weight loss (ATCC17978-infected mice; 12 hpi, on average, infected untreated 6.7%): 3.6% | splenomegaly (percentage of spleen weight) (ATCC17978-infected mice; on average, infected untreated 0.48%): 0.38% | infected mice protected from death (ATCC17978-infected mice; within 120 h, 50 mg/kg i.p. 1 h before infection): 100% | CD86 MFI levels (M1 polarization) ([1]; F4/80+ macrophages in the lungs of Ab-infected mice): effectively attenuated | infiltration of CD11b+F4/80+ macrophages ([1]; lungs of Ab-infected mice): did not result in decrease | reduction of serum IL-1b production [2]: more than 50 fold | reduction of serum IL-6 production [2]: more than 50 fold | reduction of serum TNF-α production [2]: more than 50 fold | relative expression of TLR2/Myd88/NF-κB signaling pathway-related genes ([3]; ATCC 17978-infected mice after NPXS treatment): further reduction | transcript levels of most pro-inflammatory genes ([3]; Ab-infected mice, lungs): significantly lower | expression of COX1 gene, Log2FC [3, 4]: 0.4194 | expression of COX2 gene, Log2FC [3, 4]: 0.2429

O=C(CCN1CCN(Cc2ccccc2)CC1)Nc1nc(-c2ccccc2)cs1 [TJ-M2010-5]
CD86 MFI levels (RAW264.7 cells): decrease | CD206 MFI levels (RAW264.7 cells): no difference

Reference: US20250255841A1, “METHODS FOR TREATING CYTOKINE STORM ASSOCIATED WITH ACINETOBACTER BAUMANNII INFECTIONS” (City University of Hong Kong, priority 2024, published 2025)
